According to patent publication US20210388364A1, “METHOD FOR DETECTING A SPECIFIC SPLICE EVENT OF A GENE OF INTEREST” (Helmholtz Zentrum Müncher - Deutsches Forschungszentrum Für …, priority 2019, published 2021):

Key:
Oaz1 = test: FACS analysis of Oaz1-EXSISERS-transfected cells treated with polyamines (ribosomal frameshift readout); type: cell-based; settings: increasing polyamine concentrations, verified by immunoblot
Text: FIG. 7: Non-invasive protein-level quantification of co-translation regulation. […] Rising polyamine levels lead to a +1 frameshift and skipping of the in-frame stop codon leading to the full-length Oaz1 antizyme. The usage of the in-frame stop codon will otherwise lead to truncated non-functional Oaz1. Full-length Oaz1 binds and inactivates the enzyme Odc, the rate-limiting enzyme in the polyamine biosynthesis pathway, resulting in a product-mediated closed-loop homeostatic regulation of polyamine levels. […] Transfected (blue cells) cells were analyzed by counting the fraction of blue cells passing the green gate which is set to contain the 25% greenest cells in the untreated condition (0 mM).
Ribosomal frameshift-mediated regulations cannot be monitored by RT-qPCR or other RNA-based quantification methods. Exemplary, Oaz1, […] (FIG. 7a) was chosen, since it was known to be regulated by polyamine. gp41-1 split-inteins-flanked mNeonGreen and NrdJ-1-split-inteins-flanked mTagBFP2 were inserted into the full-length Oaz1 gene and transfected cells were treated with increasing polyamine concentrations to determine whether frameshift regulation could be read out via fluorescence quantification (FIG. 7b).

HEK-293T cells = test: Blasticidin-S survival selection of HEK-293T cells with or without bsd-intein in FOXP1 exon 18b; type: cell-based, human
Text: To knock-out MBNL1/2 (mucleblind-like protein 1/2, SEQ ID NO: 62 and SEQ ID NO: 63) in HEK293T cell cells which carries a blasticidin resistance gene flanked by inteins within the FOXP1 exon 18b, two plasmids expressing a mammalian codon-optimized Cas9 from S. pyogenes (SpCas9, SpyCas9) with a tandem C-terminal SV40 nuclear localization signal (SV40 NLS) via a CBh hybrid RNA-polymerase II promoter and human U6 driving a single-guide-RNA (sgRNA, gRNA) for SpyCas9 (SEQ ID NO: 23) with a cloned protospacer targeting MBNL1 and MBNL2 were co-transfected into the cells. 72 h later, cells were replated in a proper format and medium were supplemented with indicated blasticidin concentration. Control condition were transfected with the same conditions but the sgRNA is targeting the control locus AAVS1 (PPP1R12C) (safe-harbor locus AAVSI intronic region, SEQ ID NO. 64). Genomic DNA was isolated from blasticidin-treated surviving colonies with Wizard® Genomic DNA Purification Kit (Promega).
Next, the inventors checked whether the KO of reported suppressors of FOXP1 exon 18b by knocking out their constitutive exon of MBNL1 and MBNL2 are able to confer survival of the cells upon treatment with bs compared to a control condition where gRNA targeting the safe-harbor AAVS1 locus (PPP1R12C) was transfected instead. […]

Row | SMILES | stop codon readthrough (Oaz1) | cell survival (HEK-293T cells; bs 5 to 12.5 μg/mL, reporter cells, control gRNA targeting AAVS1) | cell survival (HEK-293T cells; unmodified HEK-293T cells, targeting MBNL1 and MBNL2 or AAVS1)
1 | NCCCNCCCCNCCCN [spermine] | stimulated |  | 
2 | CN(CC[C@H](N)CC(=O)N[C@H]1C=C[C@H](n2ccc(N)nc2=O)O[C@@H]1C(=O)O)C(=N)N [bs, blasticidin-S] |  | no survival | no cells survived
3 | NCCCCNCCCN [spermidine] | stimulated |  | 
